Target: T1, Activin receptor type-1 [172-499,R206H] (Homo sapiens, UniProt Q04771, R206H)
T1 construct: 172-499
Test: In Vitro Enzyme Inhibition Using a Biochemical Peptide Phosphorylation Assay- Caliper Assay

T1 sequence (Q04771 172-499 R206H): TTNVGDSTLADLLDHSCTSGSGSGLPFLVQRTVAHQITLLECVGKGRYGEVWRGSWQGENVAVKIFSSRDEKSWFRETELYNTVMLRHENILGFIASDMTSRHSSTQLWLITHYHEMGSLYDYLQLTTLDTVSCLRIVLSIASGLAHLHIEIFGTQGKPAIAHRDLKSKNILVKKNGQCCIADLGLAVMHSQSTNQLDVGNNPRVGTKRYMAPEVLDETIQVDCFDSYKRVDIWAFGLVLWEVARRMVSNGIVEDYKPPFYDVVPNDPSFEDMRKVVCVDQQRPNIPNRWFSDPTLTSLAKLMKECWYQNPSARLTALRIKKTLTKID

CC(C)CN1c2ccc(-c3cncc(-c4ccc(=O)n(C(C)C)c4)c3)cc2CS1(=O)=O [US11160797, Example 50]
IC50: 140 nM

Reference: BindingDB's records for patent US11160797 (NOVARTIS AG, 2021)
